Consider 22 compounds from patent US11590116B2 (THERAVANCE BIOPHARMA R&D IP, LLC, priority 2019, dated 2023).

Some results are limits rather than exact numbers.

Experiment [1] concerns the target T1, recombinant human ALK5 (TGF-βR1) protein (Homo sapiens, UniProt P36897).
T1 construct: purchased Life Technologies PR9075A
T1 sequence (P36897 34-503): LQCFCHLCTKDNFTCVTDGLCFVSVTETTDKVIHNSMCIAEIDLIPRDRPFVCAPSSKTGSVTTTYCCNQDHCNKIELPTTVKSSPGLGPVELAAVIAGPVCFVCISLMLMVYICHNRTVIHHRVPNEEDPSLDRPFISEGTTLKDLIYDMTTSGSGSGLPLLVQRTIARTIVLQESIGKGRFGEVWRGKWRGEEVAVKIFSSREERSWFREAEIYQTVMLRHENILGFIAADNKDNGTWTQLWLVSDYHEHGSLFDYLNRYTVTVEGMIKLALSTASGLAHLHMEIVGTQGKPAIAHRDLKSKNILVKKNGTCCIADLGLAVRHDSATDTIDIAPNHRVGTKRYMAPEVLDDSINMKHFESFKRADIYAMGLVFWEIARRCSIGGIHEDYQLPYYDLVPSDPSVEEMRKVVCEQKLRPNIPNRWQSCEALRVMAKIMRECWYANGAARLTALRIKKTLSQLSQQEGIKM
Kind of experiment: Biochemical ALK5 (TGF-βR1) assay to measure pKi (LANCE Ultra ULight kinase assay). Conditions: apparent pKi from pIC50 by Cheng-Prusoff, read-out: ALK5 pKi (converted). The method in brief:
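Compounds (10 μM to 25 pM) preincubated 60 minutes at room temperature with enzyme, then reaction run 60 minutes at 37° C with ATP added as 125 μM (5× final). Stopped with EDTA plus Eu-anti-phospho-Topoisomerase 2-alpha (Thr1342) antibody, TR-FRET read at 665 nm; pIC50 converted to pKi via Cheng-Prusoff.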
(In general: In TR-FRET formats the signal depends on donor and acceptor labels being close together.)

In experiment [2] the test system is TGF-β-stimulated SMAD3 phosphorylation in BEAS-2B cells. Kind of experiment: Cellular ALK5 potency assay, inhibition of TGF-β stimulated pSMAD3 formation in BEAS-2B cells. The class given is cell-based. The settings on record: Homo sapiens; inhibition of TGF-β stimulated pSMAD3 formation, BEAS-2B cells; read-out: BEAS2B pIC50 (converted). The method in brief:
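BEAS-2B human lung epithelial cells pre-treated 1 h at 37° C with compound in HBSS/25 mM HEPES/1% BSA, then stimulated 30 min with 10 ng/mL TGF-β (final). Lysates assayed for pSMAD3 by AlphaLISA; pIC50 from dose-dependent change versus stimulated untreated cells.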

As to `Cc1cccc(-c2[nH]ncc2-c2ccc3ncc(C(=O)O[C@@H]4CCN(C)C4)cc3n2)n1` [Compound 421, [(3R)-1-methylpyrrolidin-3-yl] 6-[5-(6-methyl-2-pyridyl)-1H-pyrazol-4-yl]-1,5-naphthyridine-3-carboxylate], in experiment [1], the Ki was 0.398 to 3.16 nM. Further, the IC50 in experiment [2] was 25.1 to 158 nM.

As for `Cc1cccc(-c2n[nH]cc2-c2ccc3ncc(-c4cn[nH]c4-c4cccc(C)n4)cc3n2)n1` [Compound 604, 2-[3-(6-methyl-2-pyridyl)-1H-pyrazol-4-yl]-7-[5-(6-methyl-2-pyridyl)-1H-pyrazol-4-yl]-1,5-naphthyridine], the Ki in experiment [1] is 0.398 to 3.16 nM. The IC50 in experiment [2] was 25.1 to 158 nM.

As for `Cc1cccc(-c2n[nH]cc2-c2ccc3nccc(N(C)CCCN4CCOCC4)c3n2)n1` [Compound 848, N-methyl-6-[3-(6-methyl-2-pyridyl)-1H-pyrazol-4-yl]-N-(3-morpholinopropyl)-1,5-naphthyridin-4-amine], the Ki in experiment [1] was 0.0398 to 0.316 nM. Further, in experiment [2], the IC50 is 200 to 1260 nM.

Take `Cc1nc(-c2[nH]cnc2-c2ccc3ncc(NCCN4CCCC4(C)C)cc3n2)ccc1F` [Compound 603, N-[2-(2,2-dimethylpyrrolidin-1-yl)ethyl]-6-[5-(5-fluoro-6-methyl-2-pyridyl)-1H-imidazol-4-yl]-1,5-naphthyridin-3-amine]: the Ki in experiment [1] is < 0.0316 nM. Further, the IC50 in experiment [2] is 25.1 to 158 nM.

Regarding `Cc1cccc(-c2[nH]cnc2-c2ccc3ncc(C(=O)O[C@H]4CC[C@@](C)(N)CC4)cc3c2)n1` [Compound 768, (4-amino-4-methyl-cyclohexyl) 6-[5-(6-methyl-2-pyridyl)-1H-imidazol-4-yl]quinoline-3-carboxylate], in experiment [1], the Ki is 0.0398 to 0.316 nM. In addition, in experiment [2], the IC50 was 25.1 to 158 nM.

As for `FC(F)(F)c1cccc(-c2n[nH]cc2-c2ccc3ncc(N4CCCNCC4)cc3n2)n1` [Compound 383, 7-(1,4-diazepan-1-yl)-2-[3-[6-(trifluoromethyl)-2-pyridyl]-1H-pyrazol-4-yl]-1,5-naphthyridine], the Ki in experiment [1] was 0.398 to 3.16 nM. For the same compound, the IC50 in experiment [2] was 200 to 1260 nM.

Take `Cc1cccc(-c2[nH]cnc2-c2ccc3ncc(-c4cnc5c(c4)CNCC5)cc3c2)n1` [Compound 77, 3-[6-[5-(6-methyl-2-pyridyl)-1H-imidazol-4-yl]-3-quinolyl]-5,6,7,8-tetrahydro-1,6-naphthyridine]: the Ki in experiment [1] is 0.0398 to 0.316 nM. For the same compound, the IC50 in experiment [2] is 25.1 to 158 nM.

For `Cc1cccc(-c2[nH]cnc2-c2ccc3ncc(C4=CCC5(CCNCC5)CC4)cc3c2)n1` [Compound 392, 9-(6-(5-(6-methylpyridin-2-yl)-1H-imidazol-4-yl)quinolin-3-yl)-3-azaspiro[5.5]undec-8-ene], in experiment [1], the Ki is 0.0398 to 0.316 nM. In experiment [2], the IC50 was 25.1 to 158 nM.

For the compound `Cc1nc(-c2n[nH]cc2-c2ccc3ncc(-c4nc5n(n4)CCNC5)cc3n2)ccc1F` [Compound 176, 2-[3-(5-fluoro-6-methyl-2-pyridyl)-1H-pyrazol-4-yl]-7-(5,6,7,8-tetrahydro-[1,2,4]triazolo[1,5-a]pyrazin-2-yl)-1,5-naphthyridine], the Ki in experiment [1] is 0.0398 to 0.316 nM. For the same compound, in experiment [2], the IC50 was 25.1 to 158 nM.

Consider `Cc1cccc(-c2n[nH]cc2-c2ccc3ncc(CN4CC(N5CCOCC5)C4)cc3n2)n1` [Compound 495, 4-[1-[[6-[3-(6-methyl-2-pyridyl)-1H-pyrazol-4-yl]-1,5-naphthyridin-3-yl]methyl]azetidin-3-yl]morpholine], for which, in experiment [1], the Ki was 3.98 to 31.6 nM. Also, in experiment [2], the IC50 was 200 to 1260 nM.

In the case of `Cc1cccc(-c2n[nH]cc2-c2ccc3nccc(CN4CCC(N5CCOCC5)CC4)c3n2)n1` [Compound 849, 4-[1-[[6-[3-(6-methyl-2-pyridyl)-1H-pyrazol-4-yl]-1,5-naphthyridin-4-yl]methyl]-4-piperidyl]morpholine], the Ki in experiment [1] is 0.398 to 3.16 nM. In experiment [2], the IC50 was 200 to 1260 nM.

With `Cc1cccc(-c2n[nH]cc2-c2ccc3ncc(-c4cn5c(n4)CN(CCN)CC5)cc3n2)n1` [Compound 427, 2-[2-[6-[3-(6-methyl-2-pyridyl)-1H-pyrazol-4-yl]-1,5-naphthyridin-3-yl]-6,8-dihydro-5H-imidazo[1,2-a]pyrazin-7-yl]ethanamine], in experiment [1], the Ki was 0.0398 to 0.316 nM. In experiment [2], the IC50 is 200 to 1260 nM.

With `CNCCn1cc(-c2cnc3ccc(-c4c[nH]nc4-c4ccc(F)c(C)n4)cc3c2)cn1` [Compound 634, 2-[4-[6-[3-(5-fluoro-6-methyl-2-pyridyl)-1H-pyrazol-4-yl]-3-quinolyl]pyrazol-1-yl]-N-methyl-ethanamine], the Ki in experiment [1] is < 0.0316 nM. The IC50 in experiment [2] was < 20 nM.

As for `CNc1cnc2ccc(-c3c[nH]nc3-c3cccc(C)n3)nc2c1` [Compound 106, N-methyl-6-[3-(6-methyl-2-pyridyl)-1H-pyrazol-4-yl]-1,5-naphthyridin-3-amine], the Ki in experiment [1] is 0.0398 to 0.316 nM. For the same compound, the IC50 in experiment [2] is < 20 nM.

In the case of `Cc1cccc(-c2[nH]ncc2-c2ccc3ncc(C(=O)OCCN4CCN(C(C)C)CC4)cc3n2)n1` [Compound 389, 2-(4-isopropylpiperazin-1-yl)ethyl 6-[5-(6-methyl-2-pyridyl)-1H-pyrazol-4-yl]-1,5-naphthyridine-3-carboxylate], in experiment [1], the Ki was 0.0398 to 0.316 nM. Besides, the IC50 in experiment [2] is 25.1 to 158 nM.

For the compound `Cc1cccc(-c2[nH]cnc2-c2ccc3ncc(C4=CCNC4)cc3c2)n1` [Compound 429, 3-(2,5-dihydro-1H-pyrrol-3-yl)-6-[5-(6-methyl-2-pyridyl)-1H-imidazol-4-yl]quinoline], in experiment [1], the Ki was 0.0398 to 0.316 nM. Besides, the IC50 in experiment [2] is < 20 nM.

Regarding `Cc1cccc(-c2[nH]c(O)nc2-c2ccc3ncc(C4=CCC5(CCNCC5)CC4)cc3c2)n1` [Compound 1198, 4-[3-(3-azaspiro[5.5]undec-9-en-9-yl)-6-quinolyl]-5-(6-methyl-2-pyridyl)-1H-imidazol-2-ol], in experiment [1], the Ki was 0.0398 to 0.316 nM. Also, in experiment [2], the IC50 is 200 to 1260 nM.

Turning to `Cc1cccc(-c2[nH]cnc2-c2ccc3ncc(-c4cnc(C(=O)OCCN5CCNCC5)nc4)cc3c2)n1` [Compound 1138, 2-piperazin-1-ylethyl 5-[6-[5-(6-methyl-2-pyridyl)-1H-imidazol-4-yl]-3-quinolyl]pyrimidine-2-carboxylate], the Ki in experiment [1] was 0.398 to 3.16 nM. Moreover, in experiment [2], the IC50 was 200 to 1260 nM.

Consider `Cc1cccc(-c2n[nH]cc2-c2ccc3ncc(N4CC5CNC5C4)cc3n2)n1` (centres unmarked) [Compound 219, 7-(3,6-diazabicyclo[3.2.0]heptan-3-yl)-2-[3-(6-methyl-2-pyridyl)-1H-pyrazol-4-yl]-1,5-naphthyridine], for which the Ki in experiment [1] was 0.0398 to 0.316 nM. Further, in experiment [2], the IC50 was 25.1 to 158 nM.

For the compound `Cc1cccc(-c2[nH]nnc2-c2ccc3ncc(-c4cn[nH]c4)cc3n2)n1` [Compound 301, 2-[5-(6-methyl-2-pyridyl)-1H-triazol-4-yl]-7-(1H-pyrazol-4-yl)-1,5-naphthyridine], the Ki in experiment [1] was 0.0398 to 0.316 nM. Moreover, in experiment [2], the IC50 was 25.1 to 158 nM.

Turning to `Cc1nc(-c2n[nH]cc2-c2ccc3ncc(-c4cnn(C(=O)OC(C)C)c4)cc3n2)ccc1F` [Compound 599, isopropyl 4-[6-[3-(5-fluoro-6-methyl-2-pyridyl)-1H-pyrazol-4-yl]-1,5-naphthyridin-3-yl]pyrazole-1-carboxylate], the Ki in experiment [1] is < 0.0316 nM. In addition, the IC50 in experiment [2] is < 20 nM.

As to `Cc1cccc(-c2n[nH]cc2-c2ccc3ncc(-c4ccncc4)cc3n2)n1` [Compound 565, 2-[3-(6-methyl-2-pyridyl)-1H-pyrazol-4-yl]-7-(4-pyridyl)-1,5-naphthyridine], the Ki in experiment [1] is < 0.0316 nM. Besides, in experiment [2], the IC50 is < 20 nM.
